Measured values as given in patent US20150051202A1, “TRIAZOLOPYRAZINE DERIVATIVES” (Merck Patent GmbH, priority 2012, published 2015).
Marks after values point to notes of the source that are not given here.

Tests used:
SYK = biological target: T1, SYK (Homo sapiens, UniProt P43405); experiment: SYK enzyme assay (Flash plate assay / Caliper mobility shift assay); format: biochemical; conditions: for SYK (enzyme assay) % at 3 μM: 100% corresponds to zero effect, −50% corresponds to IC50
T1 construct: purchased BPS Bioscience, CA, USA
Description: The kinase assay is performed either as 384-well Flashplate assay (for e.g. Topcount measurement) or as 384-well Image-Flashplate assay (for LEADseeker measurement).
2.5 nM SYK, 400 nM Biotin-Aha-Aha-[…]
and 10 μM ATP (spiked with 0.3 μCi 33P-ATP/well) are incubated in a total volume of 50 μl (60 mM Hepes, 10 mM MgCl2, 1.2 mM Dithiothreitol, 0.02% Brij35, 0.1% BSA, pH 7.5) with or without test compound for 1 hours at 30° C. The reaction is stopped with 25 μl 200 mM EDTA. After 30 Min at 30° C. the liquid is removed and each well washed thrice with 100 μl 0.9% sodium chloride solution. Non-specific reaction is determined in presence of 0.1 μM Staurosporine. Radioactivity is measured with Topcount (when using Flashplates) or with LEADseeker (when using Image-Flashplates) respectively. Results (e.g. IC50-values) are calculated with program tools provided by the IT-department (e.g. Symyx Assay Explorer, Genedata Screener).
Enzymatic Assays Using the Caliper LifeSciences Technology
The assays described here are performed on the Caliper Life Sciences LC3000 system This technology provides data on enzyme activity via measurement of the relative amounts of phosphorylated or unphosphorylated fluorescently labelled substrate peptide at the end of an enzymatic reaction.
These different states of peptide are resolved by applying a potential difference across the sample. The presence of the charged phosphate group on the product (as opposed to the substrate) causes a different peptide mobility between the two peptides. This is visualized by excitation of the fluorescent label on the substrate and product peptides and represented as peaks within the analysis software.
In order to measure inhibitor activity of kinase inhibitors on this technology, a TTP Mosquito liquid handling instrument is used to place 0.25 ul of the appropriate concentration of inhibitor in 100% DMSO (for a dose response curve calculation) into each well of a 384-well plate. To this reaction components are added to a final volume of 25 ul. The table below indicates the sequences and concentrations for the assays described in this report. Standard components are 1 mM DTT (Sigma, D0632), 1 mM MgCl2 (Sigma, M1028), 100 mM HEPES pH 7.5 (Calbiochem, 391338), 0.015% Brij-35 (Sigma, B4184).
The reaction is incubated for 90 min at 25 C, and then stopped by the addition of 70 ul of Stop buffer (100 mM HEPES pH 7.5, 0.015% Brij-35, 10 mM EDTA (Sigma, E7889)).
The plate is read on a Caliper LC 3000 in an Off-Chip mobility shift assay format, on a 12-sipper chip. Unphosphorylated substrate and phosphorylated product peptide resolve as separate peaks allowing direct measurement of percentage of conversion of substrate to product. The percent conversion can be plotted against concentration of inhibitor to produce a sigmoidal dose response curve, from which an IC50 can be calculated using GeneData Condoseo or a similar product.

GCN2 = GCN2 (Homo sapiens, UniProt Q9P2K8); experiment: GCN2 enzyme assay (TR-FRET Lanthascreen, GFP-eIF2alpha substrate); format: biochemical
Description: GCN2: Assay Principle & Conditions
This assay can quantificate the activity of the serin kinase GCN2 (general control non-derepressible-2).
This kinase is involved in the stress metabolism of cells. It is activated upon starvation (amino acid depletion). Its natural substrate is eIF2a (eukaryotic initiation factor 2 alpha subunit), a translation factor, which gets activated (phosphorylated) by GCN2 in case of an amino acid bottleneck in the cells. This in turn leads to a halt of the protein synthesis. Inhibition of GCN2 results in stopping this mechanism: The cell can not stop protein production upon “starvation” stress.
The assay is run in two steps: the enzymatic reaction and the detection step. In the first step GCN2 is incubated with 10 μM ATP and 80 nM of the GFP-labelled substrate eIF2alpha at room temperature.
The enzymatic reaction is stopped by addition of EDTA. The amount of phosphorylated eIF2alpha is determined by TR-FRET (Lanthascreen): A complex is formed consisting of antibody and GFP labelled phospho-eIF2a, which allows a FRET upon exitation at 340 nm.
Final Concentrations in the Enzymatic Reaction • Hepes, pH 7.0 50 mM • MgCl2 10 mM • MnCl2 5 mM • BSA 0.1% • DMSO 1% • ATP 10 uM • DTT 2 mM • GFP-eIF2a 80 nM (substrate) • GCN2 30 nM (enzyme)

Chain of GCN2 (Q9P2K8 whole entry): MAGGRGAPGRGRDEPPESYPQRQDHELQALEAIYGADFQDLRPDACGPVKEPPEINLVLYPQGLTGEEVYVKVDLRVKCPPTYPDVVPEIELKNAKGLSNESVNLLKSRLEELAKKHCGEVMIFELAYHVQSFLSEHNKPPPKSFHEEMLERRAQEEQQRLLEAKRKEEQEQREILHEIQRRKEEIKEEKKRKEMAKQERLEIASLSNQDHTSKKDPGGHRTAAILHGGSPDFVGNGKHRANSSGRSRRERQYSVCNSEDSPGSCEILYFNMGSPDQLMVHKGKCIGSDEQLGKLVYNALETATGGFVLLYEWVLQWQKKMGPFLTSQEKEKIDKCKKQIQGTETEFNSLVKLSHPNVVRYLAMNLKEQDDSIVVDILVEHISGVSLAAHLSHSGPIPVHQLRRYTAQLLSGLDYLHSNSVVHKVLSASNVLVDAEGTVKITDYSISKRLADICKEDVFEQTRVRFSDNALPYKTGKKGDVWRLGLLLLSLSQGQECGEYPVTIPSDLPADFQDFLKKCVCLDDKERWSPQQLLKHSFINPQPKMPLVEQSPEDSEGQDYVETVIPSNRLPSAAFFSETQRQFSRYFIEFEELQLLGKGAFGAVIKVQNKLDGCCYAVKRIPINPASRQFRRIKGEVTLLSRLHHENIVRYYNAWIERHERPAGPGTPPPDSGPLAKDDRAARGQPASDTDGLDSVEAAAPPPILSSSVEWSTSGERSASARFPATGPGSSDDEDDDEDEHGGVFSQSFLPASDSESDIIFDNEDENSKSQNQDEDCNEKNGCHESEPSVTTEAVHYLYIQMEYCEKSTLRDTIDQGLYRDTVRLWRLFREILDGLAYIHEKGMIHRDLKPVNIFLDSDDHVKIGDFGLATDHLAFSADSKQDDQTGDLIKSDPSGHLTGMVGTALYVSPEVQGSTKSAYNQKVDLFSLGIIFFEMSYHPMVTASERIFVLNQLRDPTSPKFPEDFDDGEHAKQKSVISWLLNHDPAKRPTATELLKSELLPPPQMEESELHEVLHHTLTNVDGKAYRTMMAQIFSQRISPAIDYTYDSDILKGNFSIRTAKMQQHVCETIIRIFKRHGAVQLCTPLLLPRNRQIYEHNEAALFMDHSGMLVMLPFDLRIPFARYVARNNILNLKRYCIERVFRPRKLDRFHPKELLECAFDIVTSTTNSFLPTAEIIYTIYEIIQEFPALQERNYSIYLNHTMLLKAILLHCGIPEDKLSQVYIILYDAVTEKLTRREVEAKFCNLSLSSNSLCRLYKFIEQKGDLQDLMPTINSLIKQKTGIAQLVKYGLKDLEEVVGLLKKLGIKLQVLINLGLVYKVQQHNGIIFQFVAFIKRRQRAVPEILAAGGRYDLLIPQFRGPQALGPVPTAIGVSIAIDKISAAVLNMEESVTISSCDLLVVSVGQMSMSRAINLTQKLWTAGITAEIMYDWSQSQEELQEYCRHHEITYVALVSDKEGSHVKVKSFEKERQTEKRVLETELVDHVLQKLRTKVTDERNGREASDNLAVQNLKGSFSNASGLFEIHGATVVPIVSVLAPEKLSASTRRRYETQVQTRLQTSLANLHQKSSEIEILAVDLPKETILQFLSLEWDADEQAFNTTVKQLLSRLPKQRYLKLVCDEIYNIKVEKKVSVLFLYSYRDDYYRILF

SYK (enzyme assay) % at 3 μM (SYK)	IC50 (GCN2) [nM]	IC50 (SYK) [nM]	Structure (SMILES)
−18@3 * %	5000 to 10000		Cn1ncc2cc(-c3cncc4nc(Nc5ccc(S(C)(=O)=O)cc5)nn34)ccc21 [Compound A1, (4-methanesulfonyl-phenyl)-[5-(1-methyl-1H-indazol-5-yl)-[1,2,4]triazolo[1,5-a]pyrazin-2-yl]-amine]
−29@3%	< 1000		COc1cccc(Nc2nc3cncc(-c4ccc5c(cnn5C)c4)n3n2)c1 [Compound A2]
−9@3%	1000 to 5000		Cn1ncc2cc(-c3cncc4nc(Nc5cccnc5)nn34)ccc21 [Compound A3, [5-(1-methyl-1H-indazol-5-yl)-[1,2,4]triazolo[1,5-a]pyrazin-2-yl]-pyridin-3-yl-amine]
	< 1000	< 1000	Cc1cc(Nc2nc3cncc(-c4ccc5c(cnn5C)c4)n3n2)ccc1N1CCN(C)CC1 [Compound A4, [5-(1-methyl-1H-indazol-5-yl)-[1,2,4]triazolo[1,5-a]pyrazin-2-yl]-[3-methyl-4-(4-methyl-piperazin-1-yl)-phenyl]-amine]
	1000 to 5000	< 1000	Cn1ncc2cc(-c3cncc4nc(Nc5ccc6c(c5)NC(=O)C6(C)C)nn34)ccc21 [Compound A5, 3,3-dimethyl-6-[5-(1-methyl-1H-indazol-5-yl)-[1,2,4]triazolo[1,5-a]pyrazin-2-ylamino]-1,3-dihydro-indol-2-one]
	< 1000	1000 to 5000	CN(C)Cc1nc2cc(Nc3nc4cncc(-c5ccc6c(cnn6C)c5)n4n3)ccc2[nH]1 [Compound A6, (2-dimethylaminomethyl-1H-benzoimidazol-5-yl)-[5-(1-methyl-1H-indazol-5-yl)-[1,2,4]triazolo[1,5-a]pyrazin-2-yl]-amine]
	5000 to 10000	1000 to 5000	NS(=O)(=O)c1cccc(Nc2nc3cncc(-c4cnc5ccccc5c4)n3n2)c1 [Compound A7, 3-(5-quinolin-3-yl-[1,2,4]triazolo[1,5-a]pyrazin-2-ylamino)-benzenesulfonamide]
	1000 to 5000	1000 to 5000	Cc1cc(Nc2nc3cncc(-c4cnc5ccccc5c4)n3n2)ccc1N1CCN(C)CC1 [Compound A8, [3-methyl-4-(4-methyl-piperazin-1-yl)-phenyl]-(5-quinolin-3-yl-[1,2,4]triazolo[1,5-a]pyrazin-2-yl)-amine]
	1000 to 5000	1000 to 5000	CC1(C)C(=O)Nc2cc(Nc3nc4cncc(-c5cnc6ccccc6c5)n4n3)ccc21 [Compound A9, 3,3-dimethyl-6-(5-quinolin-3-yl-[1,2,4]triazolo[1,5-a]pyrazin-2-ylamino)-1,3-dihydro-indol-2-one]
	< 1000	1000 to 5000	CN(C)Cc1nc2cc(Nc3nc4cncc(-c5cnc6ccccc6c5)n4n3)ccc2[nH]1 [Compound A10, (2-dimethylaminomethyl-1H-benzoimidazol-5-yl)-(5-quinolin-3-yl-[1,2,4]triazolo[1,5-a]pyrazin-2-yl)-amine]
	1000 to 5000	1000 to 5000	Cn1cc(-c2cncc3nc(Nc4ccc(S(C)(=O)=O)cc4)nn23)cn1 [Compound A11, (4-methanesulfonyl-phenyl)-[5-(1-methyl-1H-pyrazol-4-yl)-[1,2,4]triazolo[1,5-a]pyrazin-2-yl]-amine]
	< 1000		Cn1cc(-c2cncc3nc(Nc4cccnc4)nn23)cn1 [Compound A12, [5-(1-methyl-1H-pyrazol-4-yl)-[1,2,4]triazolo[1,5-a]pyrazin-2-yl]-pyridin-3-yl-amine]
	1000 to 5000		Fc1cccc(Nc2nc3cnc(Cl)cn3n2)c1 [Compound A19]
	1000 to 5000		Fc1ccc(Nc2nc3cnc(Cl)cn3n2)cc1 [Compound A21]
	1000 to 5000		COc1cccc(Nc2nc3cnc(C#N)cn3n2)c1 [Compound A23]
1@3%			COc1cccc(Nc2nc3cnc(C)cn3n2)c1 [Compound A24, (3-methoxy-phenyl)-(6-methyl-[1,2,4]triazolo[1,5-a]pyrazin-2-yl)-amine]
	1000 to 5000		Fc1ccc(Nc2cn3nc(Nc4cccnc4)nc3cn2)cc1 [Compound A29, N6-(4-fluoro-phenyl)-N2-pyridin-3-yl-[1,2,4]triazolo[1,5-a]pyrazine-2,6-diamine]
	1000 to 5000		c1cnc2ccc(-c3cncc4nc(Nc5ccc(N6CCOCC6)cc5)nn34)cc2c1 [Compound A33, (4-morpholin-4-yl-phenyl)-(5-quinolin-6-yl-[1,2,4]triazolo[1,5-a]pyrazin-2-yl)-amine]
	< 1000		Cn1ncc2cc(-c3cncc4nc(Nc5ccc6c(c5)CC(=O)N6)nn34)ccc21 [Compound A38, 5-[5-(1-methyl-1H-indazol-5-yl)-[1,2,4]triazolo[1,5-a]pyrazin-2-ylamino]-1,3-dihydro-indol-2-one]
	< 1000		Cn1ncc2cc(-c3cncc4nc(Nc5cccc(S(N)(=O)=O)c5)nn34)ccc21 [Compound A39, 3-[5-(1-methyl-1H-indazol-5-yl)-[1,2,4]triazolo[1,5-a]pyrazin-2-ylamino]-benzenesulfonamide]
	< 1000		Cc1cc(Nc2nc3cncc(-c4ccc(C(C)(C)C#N)cc4)n3n2)ccc1N1CCN(C)CC1 [Compound A40, 2-methyl-2-(4-{2-[3-methyl-4-(4-methyl-piperazin-1-yl)-phenylamino]-[1,2,4]triazolo[1,5-a]pyrazin-5-yl}-phenyl)-propionitrile]
	< 1000		Cn1cc(-c2cncc3nc(Nc4ccc5c(c4)CC(=O)N5)nn23)cn1 [Compound A41, 5-[5-(1-methyl-1H-pyrazol-4-yl)-[1,2,4]triazolo[1,5-a]pyrazin-2-ylamino]-1,3-dihydro-indol-2-one]
	< 1000		Cc1cc(Nc2nc3cncc(-c4cnn(C)c4)n3n2)ccc1N1CCN(C)CC1 [Compound A42, 5-(1-methyl-1H-pyrazol-4-yl)-N-(3-methyl-4-(4-methylpiperazin-1-yl)phenyl)-[1,2,4]triazolo[1,5-a]pyrazin-2-amine]
	< 1000		Cc1cc(Nc2nc3cncc(-c4cccc(NS(C)(=O)=O)c4)n3n2)ccc1N1CCN(C)CC1 [Compound A43, N-(3-(2-((3-methyl-4-(4-methylpiperazin-1-yl)phenyl)amino)-[1,2,4]triazolo[1,5-a]pyrazin-5-yl)phenyl)methanesulfonamide]
	1000 to 5000		Cc1cc(Nc2nc3cncc(-c4cccc(C(N)=O)c4)n3n2)ccc1N1CCN(C)CC1 [Compound A54, 3-{2-[3-methyl-4-(4-methyl-piperazin-1-yl)-phenylamino]-[1,2,4]triazolo[1,5-a]pyrazin-5-yl}-benzamide]
	< 1000		CN1CCN(c2ccc(Nc3nc4cncc(-c5cnn(C)c5)n4n3)cn2)CC1 [Compound A90, [6-(4-methyl-piperazin-1-yl)-pyridin-3-yl]-[5-(1-methyl-1H-pyrazol-4-yl)-[1,2,4]triazolo[1,5-a]pyrazin-2-yl]-amine]
	1000 to 5000		CNS(=O)(=O)c1cccc(-c2cncc3nc(Nc4ccc(N5CCN(C)CC5)c(OC)c4)nn23)c1 [Compound A96, 3-{2-[3-methoxy-4-(4-methyl-piperazin-1-yl)-phenylamino]-[1,2,4]triazolo[1,5-a]pyrazin-5-yl}-N-methyl-benzenesulfonamide]
